# Results as given in patent US8299096B2, “Method for treating pulmonary diseases using rho kinase inhibitor compounds” (priority 2008, dated 2012).
# “Also recorded” adds a separate entry of the source.
# Tests used:
# [1] = tested on: ovalbumin-sensitized mice; assay: Anti-inflammatory assay in ovalbumin-sensitized mouse model of asthma (BALF cells and cytokines); format: in vivo; settings: dosed i.t. to day 30, anti-inflammatory dosing paradigm
# Text: Mouse model of asthma via ovalbumin sensitization was created as described in Example 5. The anti-inflammatory dosing paradigm (FIG. 4) was utilized to evaluate the anti-inflammatory effects of experimental compounds. The anti-inflammatory dosing paradigm consists of dosing the animals once a day starting on day 27 and finishing on either day 30 or 31 (1 hr prior to the aerosolized ovalbumin challenges on days 28 to 30) but not on day 32 when hyper-reactivity evaluation occurs.
# Bronchoalveolar lavage fluid (BALF) was collected by infusing 3.0 ml of saline with 10% fetal calf serum into the lungs via the trachea and then withdrawing the fluid. The total amount of cells/ml of BALF fluid was determined via manual cell count on hemocytometer. The BALF was centrifuged, supernatant removed and analyzed for cytokine concentrations as described below, and cell pellet reconstituted in 500 μL of fluid. Cytospin slides were prepared from the cell pellet using 100 μL of fluid and spinning samples for 5 minutes at 5000 rpms in a cytospin centrifuge. Following Hema3 stain, relative percentages of individual leukocytes were determined on a 200 cell count for each sample. The final concentration of individual leukocyte cell types per ml of BALF was determined by multiplication of the relative percentage of individual leukocytes with the total amount of cells/ml of BALF fluid.
# The concentrations of cytokines in the BALF samples were determined using commercially available Bio-plex kits (Bio-Rad) for the detection of mouse IL-5, IL-13, and Eotaxin. The analysis of cytokine levels was measured using the Bio-Plex 200 (Bio-Rad) system according to the manufacturer's instructions.
# [2] = Rat oral pharmacokinetics (plasma); format: in vivo
# Description: Plasma (EDTA K2 anticoagulant) was collected from male, cannulated, CD Sprague Dawley rats to determine the pharmacokinetics of formulations containing compound inhibitors of Rho kinase. Each animal was dosed orally with a 4 ml/kg solution or suspension of each test compound in 10 mM acetate buffered saline, pH 4.5 at a final concentration range of 20-30 μmol/kg. Blood was collected at 0.25, 0.5, 1, 2, 4, 6, 8, and 24 hours. Plasma samples were assayed for the concentration of the test compound using an on-line, solid phase extraction LC/MS/MS analysis system.
# Samples were analyzed on a QSTAR Elite, hybrid quadrupole time-of-flight mass spectrometer (Applied Biosystems, Framingham, Mass.) coupled with a Symbiosis Pharma integrated, on-line SPE-HPLC system (Spark Holland Inc., Plainsboro, N.J.). Analyst QS 2.0 software was used for instrument control, data acquisition and processing. […] Mobile Phase A consisted of 0.1% ammonium hydroxide in water and Mobile Phase B consisted of 0.1% formic acid in acetonitrile. Pharmacokinetic analyses were performed using WinNonlin software version 5.2 (Pharsight Corporation, Mountain View, Calif.).
# [3] = tested on: rat tracheal rings pretreated with IL-1β and TNF-α or vehicle; assay: Effect of inflammatory cytokines on tracheal relaxation; settings: 300 nM carbachol
# Description: Male Sprague-Dawley rats weighing 301-325 gm were sacrificed by asphyxiation in a CO2 chamber. Trachea were excised, cleaned of connective tissue and cut into cylindrical segments of 2-3 mm length. Tissues were treated for 18 hours at 37° C. in F12 media with penicillin-streptomycin and 0.1% BSA alone or with 10 ng/ml IL-1β and 100 ng/ml TNF-α. Tissues were then washed free of cytokines with Krebs buffer. Contractile tensions were measured using an isometric force transducer (Grass Instruments) as described for Example 3 and signals were analyzed using specialized software (Chart v5.5, ADInstruments). Tissues were treated with 300 nM carbachol for 10 to 15 minutes to induce a contractile response. Test Compounds were added cumulatively to the bath every 30 minutes and reductions in tension were recorded. Basal tension was subtracted from all values and data were reported as a percentage of the maximal carbachol-induced contraction. Data were fit to the Hill equation using GraphPad Prism v5 software.
# LPS-challenged mice = assay: LPS-induced neutrophilia and cytokine production assay; format: in vivo, mouse; settings: for IL-1β levels in BALF: intratracheal administration, LPS-challenged mice
# Description: Male BALB/c mice, approximately 19 to 21 grams, were ordered from Charles River Laboratories (Raleigh, N.C.). All animals were challenged with aerosolized LPS (10 μg/ml) for 25 minutes on study day 0. LPS aerosol was generated using an Aerogen Aeroneb nebulizer and controller providing a flow of 400 μl/min and a particle size of 2-4 μm MMAD. Rolipram was administered i.p at 20 mg/kg. […] Four hours following LPS challenge, BALF was collected using a total of 3 ml of 0.9% sodium chloride containing 10% fetal calf serum. Total cell counts were determined using the Coulter Counter. For differential evaluations, BALF was centrifuged and cytospin slides prepared and stained with Hema3 stain. Manual leukocyte counts were then completed on 200 cells. The final concentration of individual leukocyte cell types per ml of BALF was determined by multiplication of the relative percentage of individual leukocytes with the total amount of cells/ml of BALF fluid. The concentration of IL-1β in the BALF samples was determined using commercially available Bio-plex kits (Bio-Rad). The analysis of cytokine levels was measured using the Bio-Plex 200 (Bio-Rad) system according to the manufacturer's instructions.
# [4] = tested on: ovalbumin-sensitized mice; assay: Bronchodilator assay in ovalbumin-sensitized mouse model of asthma (Penh); format: in vivo
# Description: Male BALB/c mice were ordered from Charles River Laboratories (Raleigh, N.C.). The animals were approximately 19 to 21 grams at time of receipt. Upon arrival, the animals were randomized into groups of five males per cage and assigned to a dosing group. Animals were quarantined for 7 days under test conditions. They were observed daily for general health status and ability to adapt to the water bottles.
# Animals were sensitized on day 0 and 14 of study by an intraperitoneal injection with 20 μg of ovalbumin (ova) and 2.0 mg aluminum hydroxide (alum) which initiates the development of a specific T-helper (Th) cells type 2 resulting in asthmatic animals. One group of animals received an injection of saline to use as non-asthmatic control animals. All animals were challenged with aerosolized 1% ova once daily for 25 minutes on days 28, 29, and 30 (Zosky, et al. Respiratory Research, 2004; 5:15). Aerosol challenge consists of using an Aerogen Aeroneb nebulizer and controller with a particle size of 4-6 μm mass median aerodynamic diameter (MMAD) with a distribution of 400 μl per minute. This aerosol challenge is necessary to target the Th2-driven allergic inflammation in the lower airways.
# The test compounds and the control vehicle were administered to animals on the day of airway hyperreactivity evaluation 30 minutes to 1 hour before the evaluation to determine the bronchodilator effects of the compounds according to the bronchodilator dosing paradigm (FIG. 3A). Compounds were administered p.o. (orally), i.p. (intraperitoneally) at 15 μMol/kg unless otherwise noted (Table 4). Alternatively, compounds were administered i.t. (intratracheally) at varying doses as shown (FIG. 3B). On day 32 of the experiment, airway hyperreactivity was evaluated by placing conscious, unrestrained animals in a whole body plethysmometer (Buxco Wilmington, N.C.) and exposing them to escalating doses of nebulized methacholine, a known bronchial constrictor which acts through the muscarinic receptors of the lungs, (doses: […]-50 mg/ml). Exposure to the methacholine doses consisted of a 3 minute period during which a nebulizer was aerosolizing the methacholine and an additional 3 minute period following the cessation of nebulization. Over this 6 minute period, the plethysmometer monitors and generates numerical values for all parameters of the breath pattern. Enhanced pause (Penh), a unitless index of airway hyperreactivity, is derived from the expiratory side of the respiratory waveform measured via the plethysmograph and is used as an indirect measure of airway resistance and hyperreactivity. […] Following the methacholine dose response, all animals were anesthetized, bled and euthanized.
# Within each experiment, a mouse was given a single compound and exposed to increasing doses of methacholine [0 (baseline), 0.375, 0.75, 1.5, 3, 6, 12, 25, 50 mg/ml]. The Penh value at each of the dose levels of methacholine represents the 6-minute average response. Change from baseline (CFB) in Penh was calculated at each methacholine dose and the area under the curve (AUC) for these CFB values was calculated using the trapezoidal rule. This same approach was applied for each mouse across multiple experiments.
# For statistical analyses, a linear mixed-effects model where the response was the log 10 transformed value of AUC described above was used. Data from equal experimental conditions across experiments performed on different days were pooled for statistical analysis and data reporting. The various compounds were compared adjusting for the log 10-transformed baseline value of Penh and the chamber (1 of 10) of the plethysmometer each mouse was contained in during an experiment. A random intercept for each experiment was assumed to account for possible similarities of the results obtained from a given experiment (i.e., as a “blocking effect”).
# For Table 4 and Table 5, Penh values are reported as log 10 transformed AUC values. […]
# [5] = tested on: A-10 rat thoracic aorta cells; assay: PDGF-stimulated smooth muscle cell proliferation assay (BrdU); format: cell-based; settings: 10 ng/mL PDGF, A-10 cells
# Description: Effects on cell proliferation were measured using a bromodeoxyuridine (BrdU) incorporation assay. […] Serum free media containing 0.1% BSA was added to the cells. 24 hours later the media was removed and replaced with warmed serum free media. […] Proliferation was then monitored using the BrdU Cell Proliferation Assay, HTS (Calbiochem cat. #HTS01). BrdU was allowed to incorporate into cells for 24 hours prior to the addition of fixative/denaturing solution and the fluorometric detection of incorporated BrdU using a BrdU antibody as per manufacturer's directions. Data are reported as a percent of the PDGF-stimulated BrdU incorporation.
# [6] = tested on: ovalbumin-sensitized mice; assay: Prevention of airway hyperreactivity development, anti-inflammatory dosing paradigm (Penh); format: in vivo, mouse; settings: intratracheal, once a day, days 27 to 30 (1.091) or 27 to 31
# GCK = target: T1, GCK (Homo sapiens, UniProt Q12851); assay: Kinase panel screen, GCK; format: biochemical; settings: 1 μM test compound, 10 μM ATP
# T1 construct: purchased Upstate, Millipore Bioscience Division (KinaseProfiler service)
# T1 sequence (Q12851 1-820): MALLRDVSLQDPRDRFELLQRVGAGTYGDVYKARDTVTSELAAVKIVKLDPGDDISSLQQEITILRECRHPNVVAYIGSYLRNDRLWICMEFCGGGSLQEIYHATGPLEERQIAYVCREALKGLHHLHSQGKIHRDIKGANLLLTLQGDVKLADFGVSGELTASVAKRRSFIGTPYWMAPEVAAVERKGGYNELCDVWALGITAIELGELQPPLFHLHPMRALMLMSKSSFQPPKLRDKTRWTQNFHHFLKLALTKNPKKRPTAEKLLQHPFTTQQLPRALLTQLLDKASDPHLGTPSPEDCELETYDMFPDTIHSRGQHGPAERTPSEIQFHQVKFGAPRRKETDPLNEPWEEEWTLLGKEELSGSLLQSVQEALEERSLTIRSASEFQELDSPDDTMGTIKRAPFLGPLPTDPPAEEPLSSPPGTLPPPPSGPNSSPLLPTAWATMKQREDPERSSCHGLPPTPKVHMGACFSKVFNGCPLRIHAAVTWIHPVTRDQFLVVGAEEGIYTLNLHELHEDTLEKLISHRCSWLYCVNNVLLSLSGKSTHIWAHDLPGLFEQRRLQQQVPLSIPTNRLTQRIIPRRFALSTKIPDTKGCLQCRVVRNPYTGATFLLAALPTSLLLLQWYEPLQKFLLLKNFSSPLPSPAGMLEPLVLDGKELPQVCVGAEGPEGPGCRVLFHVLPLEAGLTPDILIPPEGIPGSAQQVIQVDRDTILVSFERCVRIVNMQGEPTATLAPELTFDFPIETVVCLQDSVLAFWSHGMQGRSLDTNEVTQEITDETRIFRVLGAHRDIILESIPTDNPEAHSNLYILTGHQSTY
# Description: (§1) Compounds of Formulae I and II were examined for activity against a selected panel of kinases using the KinaseProfiler™ enzyme profiling services (Upstate, Millipore Bioscience Division). Percent kinase activity at 10 μM and 1 μM test compound and 10 μM ATP was determined against 40 wild-type recombinant human kinases according to Upstate's standard protocol: ASK1, BTK, CSK, c-RAF, GCK, GSK3β, IKKα, IKKβ, IRAK1, IRAK4, JNK1α1, JNK2α2, JNK3, ERK1, ERK2, MAPKAP-K2, MAPKAP-K3, MEK1, MKK4, MKK6, MKK7β, Mnk2, MSK1, PAK3, PDK1, PRAK, ROCK1, Rsk2, SAPK2a, SAPK2b, SAPK3, SAPK4, SRPK1, SRPK2, Syk, TAK1, TBK1, PI3-Kβ, PI3-Kγ, PI3-Kδ.
# IRAK1 = target: T2, IRAK1 (Homo sapiens, UniProt P51617); assay: Kinase panel screen, IRAK1; format: biochemical; settings: 10 μM ATP
# T2 construct: purchased Upstate, Millipore Bioscience Division (KinaseProfiler service)
# Description: as §1
# Mnk2 = target: T3, Mnk2 (Homo sapiens, UniProt Q9HBH9); assay: Kinase panel screen, Mnk2; format: biochemical; settings: 10 μM ATP
# T3 construct: purchased Upstate, Millipore Bioscience Division (KinaseProfiler service)
# Description: as §1
# IRAK4 = target: T4, IRAK4 (Homo sapiens, UniProt Q9NWZ3); assay: Kinase panel screen, IRAK4; format: biochemical; settings: 10 μM ATP
# T4 construct: purchased Upstate, Millipore Bioscience Division (KinaseProfiler service)
# T4 sequence (Q9NWZ3 1-460): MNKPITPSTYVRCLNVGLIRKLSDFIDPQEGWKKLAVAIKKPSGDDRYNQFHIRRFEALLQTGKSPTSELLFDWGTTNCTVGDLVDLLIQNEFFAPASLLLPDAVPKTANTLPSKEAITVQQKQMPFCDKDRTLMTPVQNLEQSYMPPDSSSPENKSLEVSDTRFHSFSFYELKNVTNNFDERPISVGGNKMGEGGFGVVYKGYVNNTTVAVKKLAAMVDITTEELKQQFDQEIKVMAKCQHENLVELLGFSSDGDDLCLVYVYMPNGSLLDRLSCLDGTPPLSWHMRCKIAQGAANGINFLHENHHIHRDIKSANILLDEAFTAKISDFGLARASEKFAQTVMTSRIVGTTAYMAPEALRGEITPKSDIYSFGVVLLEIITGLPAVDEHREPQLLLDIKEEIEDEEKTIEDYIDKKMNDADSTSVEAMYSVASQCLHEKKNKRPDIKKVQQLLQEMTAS
# Description: as §1
# [7] = rat, oral, 20-30 μmol/kg, plasma, mean n = 3
# T3 sequence (Q9HBH9 whole entry): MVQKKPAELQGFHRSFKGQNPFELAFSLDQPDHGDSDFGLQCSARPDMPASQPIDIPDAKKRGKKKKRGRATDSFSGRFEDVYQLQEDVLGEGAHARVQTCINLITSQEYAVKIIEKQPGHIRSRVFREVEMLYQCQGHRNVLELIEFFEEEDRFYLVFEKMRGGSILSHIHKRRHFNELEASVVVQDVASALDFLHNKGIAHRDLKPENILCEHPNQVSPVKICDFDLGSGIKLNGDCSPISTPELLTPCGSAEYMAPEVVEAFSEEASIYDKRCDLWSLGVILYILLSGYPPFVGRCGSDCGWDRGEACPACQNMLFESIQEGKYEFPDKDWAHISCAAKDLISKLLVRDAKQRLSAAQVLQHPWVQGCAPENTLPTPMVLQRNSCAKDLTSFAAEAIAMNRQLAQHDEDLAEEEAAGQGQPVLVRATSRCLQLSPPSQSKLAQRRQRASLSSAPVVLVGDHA
# T2 sequence (P51617 whole entry): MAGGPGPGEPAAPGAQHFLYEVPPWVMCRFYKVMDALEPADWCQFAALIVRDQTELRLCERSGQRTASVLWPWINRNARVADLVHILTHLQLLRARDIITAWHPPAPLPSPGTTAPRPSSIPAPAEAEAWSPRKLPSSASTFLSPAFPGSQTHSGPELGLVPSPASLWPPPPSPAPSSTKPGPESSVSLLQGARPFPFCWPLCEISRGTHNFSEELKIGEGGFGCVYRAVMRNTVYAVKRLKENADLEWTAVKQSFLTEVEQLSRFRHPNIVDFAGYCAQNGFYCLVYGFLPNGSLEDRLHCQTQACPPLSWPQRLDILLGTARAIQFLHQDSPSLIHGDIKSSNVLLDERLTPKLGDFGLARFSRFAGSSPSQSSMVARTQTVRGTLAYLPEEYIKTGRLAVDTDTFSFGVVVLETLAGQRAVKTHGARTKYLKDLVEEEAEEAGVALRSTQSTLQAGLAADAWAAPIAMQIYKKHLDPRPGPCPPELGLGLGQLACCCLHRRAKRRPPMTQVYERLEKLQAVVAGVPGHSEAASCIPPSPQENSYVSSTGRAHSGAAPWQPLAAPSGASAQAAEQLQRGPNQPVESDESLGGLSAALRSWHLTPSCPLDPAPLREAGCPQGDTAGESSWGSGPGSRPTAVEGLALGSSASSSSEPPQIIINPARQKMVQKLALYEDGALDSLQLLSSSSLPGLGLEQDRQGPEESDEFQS
structure (smiles),measurement,setting,value
CS(=O)(=O)Nc1cccc(CN2CCC[C@H](Nc3ccc4[nH]ncc4c3)C2)c1 [Compound 1.091],Eosinophils in BALF,[1],reduction of eosinophils
same,Oral bioavailability,[2]; oral dosing,poor
same,AUC (0-last),[2]; [7],below the level of quantification
same,Cmax,[2]; [7],below the level of quantification
same,Potency in cytokine-pretreated versus vehicle-pretreated tissues,[3],slightly more potent in cytokine-pretreated tissues
same,Relaxation of tracheal rings from vehicle-pretreated and cytokine-pretreated tissues,"[3]; 10 ng/ml IL-1β and 100 ng/ml TNF-α, 18 hours",fully efficacious
same,Efficacy on neutrophilia compared to rolipram dosed i.p.,LPS-challenged mice; dosed intratracheally,similar
same,IL-1β levels in BALF,LPS-challenged mice,reduction
same,LPS-induced pulmonary neutrophilia (BALF),"LPS-challenged mice; intratracheal dosing one hour prior to LPS challenge, mice",significant reduction; also recorded: dose-dependent inhibition
same,Reduction in airway hyperresponsiveness,"[4]; i.p. route of administration, compared to oral dosing",enhanced reduction
same,Bronchodilatory response,[4]; intratracheal administration,robust bronchodilatory response
same,Reduction in airway hyperresponsivness,[4]; oral doses,did not yield a significant reduction
CSc1ccc(CN2CC[C@@H](Nc3cccc4cnccc34)C2)cc1 [Compound 2.026],Percent of PDGF Induced Proliferation at 1 μM Avg,[5]; 1 μM,74.5%
same,Percent of PDGF Induced Proliferation at 10 μM Avg,[5]; 10 μM,52.0%
NC(=O)Cn1ccc2cc(CN3CC[C@@H](Nc4cccc5cnccc45)C3)ccc21 [Compound 2.059],Prevention of airway hyperreactivity,[6],prevention of airway hyperreactivity
same,percent inhibition at 1 µM,GCK,75%
same,"Percent inhibition, IRAK1",IRAK1; 1 μM test compound,87%
same,"Percent inhibition, IRAK1",IRAK1; 10 μM test compound,30%
same,"Percent inhibition, Mnk2",Mnk2; 1 μM test compound,49%
same,"Percent inhibition, Mnk2",Mnk2; 10 μM test compound,12%
same,"Percent inhibition, IRAK4",IRAK4; 1 μM test compound,63%
same,"Percent inhibition, IRAK4",IRAK4; 10 μM test compound,22%
same,IL-1β levels in BALF,LPS-challenged mice,reduction
